{
  "source": "paper PMC9163038",
  "about": "(Scientific Reports, 2022)",
  "key": {"[1]": {"molecular_target": "T1, mouse cholecystokinin-2 receptor, EGFP-tagged (mouse) (UniProt P56481)", "T1 sequence": "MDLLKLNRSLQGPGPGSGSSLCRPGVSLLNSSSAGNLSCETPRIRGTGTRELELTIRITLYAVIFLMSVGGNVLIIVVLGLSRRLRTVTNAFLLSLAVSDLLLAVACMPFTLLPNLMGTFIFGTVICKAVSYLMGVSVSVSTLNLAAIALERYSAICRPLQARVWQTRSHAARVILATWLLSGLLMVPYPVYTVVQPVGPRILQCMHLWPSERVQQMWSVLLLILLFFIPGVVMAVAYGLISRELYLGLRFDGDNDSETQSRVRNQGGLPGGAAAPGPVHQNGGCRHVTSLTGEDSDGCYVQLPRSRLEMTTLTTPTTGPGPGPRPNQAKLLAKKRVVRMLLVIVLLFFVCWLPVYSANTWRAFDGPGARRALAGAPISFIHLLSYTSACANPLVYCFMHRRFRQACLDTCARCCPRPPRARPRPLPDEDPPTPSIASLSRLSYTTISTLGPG"}, "[2]": {"test_system": "HEK293 cells", "assay": "Cell viability assay (Cell Counting Kit-8)", "settings": "2 h incubation", "description": "Effect on cell viability of plant extract was measured against the HEK293 cell line using the Cell Counting Kit-8 (VitaScientific, USA). Briefly, 100 µL of medium containing 1 × 10^4 cells was seeded in each well of a 96-well plate and incubated at 37 °C for 24 h. […] Finally, 10 µL of the kit reagent (final concentration of 10%, v/v) was added into each well and incubated at 37 °C for 3 h. Absorbance was measured at 450 nm using the FlexStation 3 multi-mode microplate reader (Molecular Devices, USA). Triton X-100 and medium were used as positive and negative controls, respectively. The cell viability (CV) percentage was calculated using the following equation: CV (%) = (AS/AC) × 100, whereas AS and AC are related to the absorbance of sample and negative control at 450 nm."}, "[3]": {"molecular_target": "T2, mouse CCK2R (Mus musculus, UniProt P56481)", "T2 sequence (P56481 1-453)": "T1 sequence", "assay": "Inositol-1-phosphate (IP1) accumulation assay (HTRF) in HEK293 cells transiently expressing CCK2R", "settings": "for Emax: HEK293, read-out: Maximum efficacy (Emax) at the CCK2R; for Antagonism of CCK-8-induced IP1 formation: antagonist 500 nM, preincubated 30 min at 37 °C, CCK-8 10 nM, Fig. S1b, n = 3-5; for IP1 formation (fold difference over baseline): positive control, n = 3-4", "procedure": "Human embryonic kidney (HEK293) cells (Ref.[31]) were maintained in a fresh Dulbecco’s modified Eagle’s medium supplemented with 10% fetal bovine serum, 100 U/mL penicillin, and 100 µg/mL streptomycin in a humidified atmosphere of 5% CO2 at 37 °C. 2 mL of cell suspension was poured into each well of a 6-well plate and incubated overnight at 37 °C. After reaching to a confluency of 70–80%, the cells were transfected with a plasmid encoding EGFP-tagged CCK2R using the jetPRIME transfection reagent according to manufacturer’s instructions (Polyplus-transfection, USA).\nThe receptor-mediated activation of Gq-dependent signaling was measured using a homogenous time-resolved fluorescence (HTRF) based inositol-1-phosphate (IP1) assay kit (Cisbio, France). Approximately 3-6 × 10^4 HEK293 cells expressing the CCK2R were seeded into each well of a 96- or 384-well plate and incubated overnight at 37 °C. […] Antagonists YM-022 and LY225910 (500 nM or 1 µM, both Sigma -Aldrich, Austria) were preincubated at 37 °C for 30 min. After adding IP1-d2 conjugate and anti-IP1 Eu Cryptate according to manufacturers’ instructions, the plate was incubated at room temperature for 3 h. The HTRF measurement was carried out using the FlexStation 3 multi-mode microplate reader with excitation at 330 nm and emissions at 620 and 665 nm.\nAll experiments were performed in triplicate, analyzed using the GraphPad prism software (GraphPad Software, USA) and expressed as mean ± SD (standard deviation). Pharmacological data of concentration response curves were normalized to the maximal response of CCK-8 detected at the highest concentration. […] Single concentration efficacy data were normalized to baseline (assay buffer) and data were expressed as IP1 formation (fold difference over baseline)."}, "[4]": {"molecular_target": "T1, mouse cholecystokinin-2 receptor, EGFP-tagged (mouse)", "remark": "listed apart in the source"}},
  "note": "Where two headings read alike, the source gives them in different places. Where a SMILES comes first, the peptide text is derived from it. Bridges are numbered along the chain shown (N, C = ends).",
  "data": [
    {"molecule": "cholecystokinin-8 (from UniProt P06307 96-103) (peptide)", "values": [
      {"measurement": "EC50 of IP1 accumulation, CCK-8 alone (control curve of the co-treatment experiment, Fig. 5b)", "setting": "[1]", "value": 12.9, "unit": "nM"}
    ]},
    {"molecule": "CC[C@H](C)[C@@H]1NC(=O)[C@@H]2CSSC[C@@H]3NC(=O)[C@H](C(C)C)NC(=O)[C@H](CCCCN)NC(=O)[C@H](CCCCN)NC(=O)[C@H](CCCCN)NC(=O)[C@@H]4CSSC[C@H](NC(=O)[C@H](CO)NC(=O)[C@H](CCC(=O)O)NC(=O)CNC(=O)[C@H](CSSC[C@H](NC(=O)CNC(=O)[C@H]([C@@H](C)CC)NC(=O)[C@H](C(C)C)NC(=O)[C@H]([C@@H](C)O)NC(=O)[C@H](CO)NC1=O)C(=O)N[C@@H](CO)C(=O)N4)NC(=O)[C@@H]1CCCN1C(=O)[C@H]([C@@H](C)CC)NC(=O)[C@H](C(C)C)NC(=O)CNC(=O)[C@H](CC(N)=O)NC(=O)[C@H](CCCNC(=N)N)NC(=O)[C@H](Cc1ccc(O)cc1)NC3=O)C(=O)N[C@@H](C(C)C)C(=O)N[C@@H](Cc1ccccc1)C(=O)N[C@@H]([C@@H](C)CC)C(=O)N1CCC[C@H]1C(=O)N2", "note": "[caripe 11] (cyclo(CGESCVFIPCISTVIGCSCKKKVCYRNGVIP); disulfide 1-17, 5-19, 10-24)", "values": [
      {"measurement": "Effect on HEK cell viability", "setting": "[2]; caripe 11 100 µM", "value": "slightly decreased HEK cell viability"},
      {"measurement": "Effect on HEK cell viability", "setting": "[2]; caripe 11 ≤ 30 µM", "value": "did not have a pronounced effect"},
      {"measurement": "Emax", "setting": "[3]; SD", "value": "71 ± 6.9", "unit": "%"},
      {"measurement": "EC50", "setting": "[3]; SD", "value": "8500 ± 1700", "unit": "nM"},
      {"measurement": "Reduction of the EC80 effect of CCK-8", "setting": "[3]; caripe 11 30 µM co-incubated with CCK-8 70 nM (EC80), Fig. S1a, n = 2", "value": "~ 20%"},
      {"measurement": "Basal activity of the CCK-8 concentration-response curve upon co-treatment", "setting": "[3]; co-treatment with caripe 11 10 µM, increased from 0, Fig. 5b, n = 3", "value": 17, "unit": "%"}
    ]},
    {"molecule": "CC(C)Oc1cccc(-n2c(CCc3c[nH]c4ccc(Br)cc34)nc3ccccc3c2=O)c1", "note": "[LY225910]", "values": [
      {"measurement": "Antagonism of CCK-8-induced IP1 formation", "setting": "[3]", "value": "did not displace the effects of endogenous ligand CCK-8"}
    ]},
    {"molecule": "Cc1cccc(NC(=O)N[C@@H]2N=C(c3ccccc3)c3ccccc3N(CC(=O)c3ccccc3C)C2=O)c1", "note": "[YM-022, (R)-1-[2,3-dihydro-1-(2'-methylphenacyl)-2-oxo-5-phenyl-1H-1,4-benzodiazepin-3-yl]-3-(3-methylphenyl) urea]", "values": [
      {"measurement": "Antagonism of CCK-8-induced IP1 formation", "setting": "[3]", "value": "significant inhibition of the IP1 formation"}
    ]},
    {"molecule": "CSCC[C@H](NC(=O)[C@H](Cc1ccc(OS(=O)(=O)O)cc1)NC(=O)[C@@H](N)CC(=O)O)C(=O)NCC(=O)N[C@@H](Cc1c[nH]c2ccccc12)C(=O)N[C@@H](CCSC)C(=O)N[C@@H](CC(=O)O)C(=O)N[C@@H](Cc1ccccc1)C(N)=O", "note": "[CCK-8, cholecystokinin-8]", "values": [
      {"measurement": "IP1 formation (fold difference over baseline)", "setting": "[3]; CCK-8 at 1 nM", "value": "0.09 fold difference over baseline"},
      {"measurement": "IP1 formation (fold difference over baseline)", "setting": "[3]; CCK-8 at 3 nM", "value": "0.31 fold difference over baseline"},
      {"measurement": "EC50", "setting": "[3]; EC50 of CCK-8 alone, CCK-8 alone, Fig. 5b experiment, n = 3", "value": 12.9, "unit": "nM"},
      {"measurement": "Emax", "setting": "[3]", "value": 100, "unit": "%"},
      {"measurement": "EC50", "setting": "[3]; SD", "value": "11.5 ± 1.5", "unit": "nM"}
    ]},
    {"molecule": "cyclo(GVIPCGESCVFIPCISTVIGCSCKKKVCYRN) (also: three disulfide bonds, pairing not given here)", "note": "[caripe 11]", "values": [
      {"measurement": "reduction of the IP1 effect of 70 nM (EC80) CCK-8 by co-incubated caripe 11 (3, 10, 30 µM); value at 30 µM", "setting": "[1]", "value": 20, "unit": "%"},
      {"measurement": "EC50 of IP1 accumulation (HTRF) in HEK293 cells transiently expressing CCK2R", "setting": "[4]", "value": 8.5, "unit": "µM"},
      {"measurement": "Emax of IP1 accumulation, normalised to the maximal response of CCK-8", "setting": "[4]", "value": 71, "unit": "%"}
    ]}
  ]
}
